ChEMBL document CHEMBL1128990, “Design, synthesis, and characterization of dipeptide isostere containing cis-epoxide for the irreversible inactivation of HIV protease” (Bioorg Med Chem Lett, 1996)
pIC50, pKi: −log10 of the molar value.

Legend:
[1] = molecular target: Human immunodeficiency virus type 1 protease (Human immunodeficiency virus 1) (UniProt Q72874); test: Kinetic parameter (kina) value was determined for the compound
[2] = molecular target: Human immunodeficiency virus type 1 protease (Human immunodeficiency virus 1, UniProt Q72874); test: Inhibitory activity against HIV protease was determined
Cathepsin D = Cathepsin D (Homo sapiens, UniProt P07339); test: Inhibitory activity against human cathepsin D was determined
Cathepsin D, sequence (P07339 65-162 limits assumed): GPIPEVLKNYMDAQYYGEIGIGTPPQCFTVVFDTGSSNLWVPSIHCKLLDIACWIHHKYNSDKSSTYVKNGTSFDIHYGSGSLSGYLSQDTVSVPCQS
Cathepsin D, sequence (P07339 169-412 limits assumed): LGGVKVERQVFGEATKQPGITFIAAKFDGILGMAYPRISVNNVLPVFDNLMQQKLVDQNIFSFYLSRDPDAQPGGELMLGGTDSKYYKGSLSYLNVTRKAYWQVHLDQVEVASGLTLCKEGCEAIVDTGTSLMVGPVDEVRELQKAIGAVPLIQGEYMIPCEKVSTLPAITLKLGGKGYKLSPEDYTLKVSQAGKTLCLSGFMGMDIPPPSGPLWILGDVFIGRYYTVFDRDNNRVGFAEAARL

CC(C)C(NC(=O)C[C@H]1O[C@H]1[C@H](Cc1ccccc1)NC(=O)OCc1ccccc1)C(=O)O (stereo partly specified)
Kina [1]: 1.48 min⁻¹
pKi [2]: 5.88

CC(C)C(NC(=O)C[C@H]1O[C@@H]1[C@H](Cc1ccccc1)NC(=O)OCc1ccccc1)C(=O)O (stereo partly specified)
Kina [1]: 0.2 min⁻¹
pKi [2]: 3.70

CC(C)C(NC(=O)[C@@H]1O[C@@H]1[C@H](Cc1ccccc1)NC(=O)OCc1ccccc1)C(=O)O (stereo partly specified)
Kina [1]: 0.02 min⁻¹
pKi [2]: < 2.00

CC(C)C(NC(=O)C[C@@H]1O[C@@H]1[C@H](Cc1ccccc1)NC(=O)C(CC(N)=O)NC(=O)c1ccc2ccccc2n1)C(C)C (stereo partly specified)
pIC50 (Cathepsin D): 4.90
Kina [1]: 0.2 min⁻¹
pKi [2]: 9.00

CCC(C)C(NC(=O)C[C@H]1O[C@H]1[C@H](Cc1ccccc1)NC(=O)C(CC(N)=O)NC(=O)c1ccc2ccccc2n1)C(=O)O (mixture of isomers)
Kina [1]: 0.22 min⁻¹
pKi [2]: 7.74
